Experimental data reported in US20120136033A1, “Small Molecule Antagonists of Phosphatidylinositol-3,4,5-Triphosphate (PIP3) and Uses Thereof” (President and Fellows of Harvard College, priority 2009, published 2012).

Assays:
cancer cells = assay type: cell-based
PI3K-PDK1-Akt pathway = PI3K-PDK1-Akt pathway phosphorylation events in U87MG cells; assay type: cell-based, human
Experimental: The effect of PIT-1 on PIP3-mediated signaling was examined in U87MG glioblastoma cells, which show elevated basal levels of PIP3 due to the loss of PTEN. Pore N et al. (2003) Cancer Res 63:236-41.

Rac1 = Rac1 activation pull-down (GST-Pak1-PBD) in SUM159 cells; assay type: cell-based, human; conditions: 2 hr, PDGF 100 ng/ml
Experimental: Rho/Rac family, especially Rac1, plays a critical role in actin polymerization, membrane ruffling/lamellipodia formation, and cell motility (Ridley A J et al. (1992) Cell 70:401-410) downstream of the GEFs, e.g., VAV family, and upstream of the WAVE family. The effect of PITs on Rac1 activation was therefore analyzed. SUM159 cells were seeded on 10 cm^2 plates and serum starved overnight, treated with different PIT compounds at a variety of concentrations for 2 hr, and then stimulated with 100 ng/ml PDGF for […]. Next, cells were rinsed once with PBS, and 1 ml lysis buffer (25 mM Tris-HCl, pH 7.5, 150 mM NaCl, 5 mM MgCl2, 1% NP-40, 1 mM DTT, 5% glycerol, 1 μg/ml aprotinin, 1 μg/ml leupeptin and 1 mM PMSF) was added per plate. The cells were scraped and transferred to a microcentrifuge tube, vortexed briefly, and incubated on ice for 5 min, followed by a centrifugation at 16,000×g at 4° C. for 15 min. The supernatant was collected. A sample of the lysate was used to ensure equal protein concentration in the samples. Next, 700 μl lysate, 20 μl glutathione-sepharose beads, and 20 μg GST-human Pak1-PBD were mixed together, and the reaction mixture was incubated at 4° C. for 1 hr with gentle rocking. The beads were then washed three times with lysis buffer, and proteins were eluted by boiling beads in 50 μl of the 2×SDS sample buffer at 95-100° C. for 5 min. […]

U87MG cells = assay: cell death with pan-caspase inhibitor zVAD.fmk, Sytox assay; assay type: cell-based, human; conditions: 100 μM zVAD.fmk, 24 hr
Experimental: FIG. 11 is a bar graph depicting that cell death triggered by PIT-1 alone or in combination with TRAIL is inhibited by pan-caspase inhibitor zVAD.fmk. U87MG cells were incubated with or without 100 μM zVAD.fmk together with PIT-1 (25, 50, 100 μM) in the presence or absence of 10 ng/ml TRAIL for 24 hr, and analyzed by Sytox cell death assay.
Based on the critical role of PIP3-dependent Akt signaling in the regulation of cell survival, the effect of PIT-1 on the cancer cell viability was tested. […] For the ATP assay, a luminescence-based commercial kit (CellTiter-Glo, Promega, Madison, Wis.) was used. Thirty microliters of cell lysis/ATP detection reagent was added to each well, mixed for 10 min at room temperature, and the luminescence was measured using a Wallac Victor 3 plate reader (Perkin-Elmer, Wellesley, Mass.). […] Twenty microliters of the combined MTS/PMS solution was added into each well, incubated for 4 hr at 37° C., and the absorbance at 490 nm was measured using a Wallac Victor 3 plate reader. For the Sytox cell death assay, measuring loss of plasma membrane integrity, cells were incubated with 1 μM Sytox Green reagent (Molecular Probes, Eugene, Oreg.) for 30 min at 37° C. and the fluorescence intensity was measured using Wallac Victor 3 plate reader with excitation at 485 nm and emission at 545 nm. […]

PLC-δ PH domain = biological target: T1, PLC-δ PH domain (Homo sapiens, UniProt P51178); assay: FP assay, PIP2 binding to PLC-δ PH domain; conditions: 15 nM TMR-PIP2, 100 nM PLC-δ PH domain, 0-200 μM
T1 construct: 100 nM PLC-δ PH domain
T1 sequence (P51178 21-130 limits assumed): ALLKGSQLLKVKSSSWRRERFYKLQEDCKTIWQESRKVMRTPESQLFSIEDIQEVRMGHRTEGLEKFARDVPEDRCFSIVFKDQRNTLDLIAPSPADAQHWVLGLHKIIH
Experimental: FIG. 5 is a graph depicting specificity and concentration-dependent competitive inhibition of PIP3-PH domain interaction by PIT-1 and PIT-2. 15 nM TMR-conjugated PIP2 were incubated with 100 nM PLC-δ PH domain in the presence or absence of the indicated concentrations of PITs (0-200 μM) for 30 min, followed by FP measurement.
In order to identify compounds that disrupt the interaction between PIP3 and PH domains, a high-throughput fluorescence polarization (FP)-binding assay was developed using recombinant 1-123 amino acid N-terminal fragment of human Akt1 (also referred to herein simply as Akt), encompassing the PH domain (PH123 protein), and fluorescent NBD-labeled PIP3 molecule. The amino acid sequence of human Akt1 is publicly available as, for example, GenBank Accession No. NP_001014432.1 (SEQ ID NO:1), and the corresponding DNA sequence is publicly available as, for example, GenBank Accession No. NM_001014432. Briefly, 5 μM recombinant GST fusion proteins containing 1-123 a.a. N-terminal fragment of human Akt1 (PH 123) or 100 nM 441-551 a.a. region of human PDK1 were incubated with 15 nM TMR-labeled PIP3, PIP2, or PIP5 in buffer containing 50 mM Tris-HCl (pH 7.5), 150 mM NaCl, and 5 mM b-ME for 15 min at room temperature in the dark. FP values were determined using Wallac Victor 3 plate reader. […]

Structure (SMILES) | cancer cell invasion through matrigel (cancer cells) | activity of the PI3K-PDK1-Akt pathway in U87MG cells (PI3K-PDK1-Akt pathway) | activation of Rac1 caused by growth factor stimulation (Rac1) | cell death alone or with TRAIL in presence of zVAD.fmk (U87MG cells) | inhibition of interaction between PIP2 and PH domain of PLC-δ (PLC-δ PH domain) | cytotoxic effects at the low concentrations used in migration and invasion experiments (cancer cells; P>0.05)
O=C1NC(=S)S/C1=C\c1cc(O)c([N+](=O)[O-])cc1Cc1ccccc1 [PIT-2] | efficiently suppressed | suppressed activity | efficiently suppressed | inhibited by a pan-caspase inhibitor zVAD.fmk | failed to inhibit | –
O=C(NC(=S)Nc1cc([N+](=O)[O-])cc(Cl)c1O)c1ccccc1 [PIT-1] | efficiently suppressed | suppressed activity | efficiently suppressed | inhibited by a pan-caspase inhibitor zVAD.fmk | failed to inhibit | no significant cytotoxic effects
